These results are taken from US9200008B2 (ASKA PHARMACEUTICAL CO., LTD., priority 2010, dated 2015).

SMILES strings stand for the structures.

The experiment concerns Human prostate cancer cell lines (PC-3 cells). As to the kind of experiment: Measurement of cell death-inducing activity (Test Example 1). It is filed as cell-based. The note with it: PC-3, 48 h, 48 hours after addition, tested at 10, 1, 0.1, 0.025 and 0.00625 μmol/L, qualitative evaluation of 10 fields, read-out: Concentration showing the cell death-inducing activity (cell death-inducing rate not less than 40%). The method in brief:
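Compound treatment lasted 48 h at 10 to 0.00625 μmol/L (five levels, DMSO as control) on PC-3 cells pre-cultured 48 h at 37 °C, 5% CO2 after seeding at 1×10^5 cells/well. A cell death-inducing rate of 40% or more counted as active.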
As for `COc1ccc(/C=N/NC(=O)c2oc(-c3ccccc3OC)nc2C)cc1C` [Example 26-3], the minimal effective concentration is 10 µM.

Take `O=C(N/N=C/c1ccc(OC(F)F)c(O)c1)c1cc(-c2ccc(Cl)cc2Cl)ns1` [Example 27-2]: the minimal effective concentration stood at 10 µM. As to `Cc1cc(/C=N/NC(=O)c2cc(-c3ccc(Cl)cc3Cl)ns2)cc(C)c1O` [Example 27-4], the minimal effective concentration stood at 1 µM. On to `COc1ccc(/C=N/NC(=O)c2cc(-c3ccccc3OC)ns2)cc1O` [Example 27-7], for which the minimal effective concentration is 0.1 µM. On to `COc1ccccc1-c1cc(C(=O)N/N=C/c2cc(C)c(O)c(C)c2)sn1` [Example 27-8], for which the minimal effective concentration turned out to be 0.1 µM. `Cc1ccccc1-c1cc(C(=O)N/N=C/c2cc(C)c(O)c(C)c2)sn1` [Example 27-10]: the minimal effective concentration worked out at 0.1 µM. On to `Cc1cc(/C=N/NC(=O)c2cc(-c3ccccn3)ns2)cc(C)c1O` [Example 27-12], for which the minimal effective concentration came to 1 µM. In the case of `Cc1cccnc1-c1cc(C(=O)N/N=C/c2cc(C)c(O)c(C)c2)sn1` [Example 27-13], the minimal effective concentration was 0.1 µM. For `Cc1cc(/C=N/NC(=O)c2snc(-c3ccc(Cl)cc3Cl)c2N)ccc1O` [Example 27-14, 4-Amino-3-(2,4-dichlorophenyl)isothiazole-5-carboxylic acid[1-(4-hydroxy-3-methylphenyl)methylidene]hydrazide], the minimal effective concentration is 10 µM. With `Cc1cc(/C=N/NC(=O)c2snc(-c3ccc(Cl)cc3Cl)c2N)cc(C)c1O` [Example 27-15, 4-Amino-3-(2,4-dichlorophenyl)isothiazole-5-carboxylic acid[1-(4-hydroxy-3,5-dimethylphenyl)methylidene]hydrazide], the minimal effective concentration was 10 µM.

Turning to `COc1ccc(COC(=S)Nc2sc(-c3ccc(Cl)cc3OC)nc2C)cc1` [Example 28-1, [2-(4-Chloro-2-methoxyphenyl)-4-methylthiazol-5-yl]thiocarbamic acid O-(4-methoxybenzyl)ester], the minimal effective concentration stood at 10 µM. The value for `COc1ccc(/C=N/NC(=O)Cc2sc(-c3ccc(Cl)cc3OC)nc2C)cc1` [Example 29-1, [2-(4-Chloro-2-methoxyphenyl)-4-methylthiazol-5-yl]acetic acid[1-(4-methoxyphenyl)methylidene]hydrazide] was 1 µM; that for `COc1cc(Cl)ccc1-c1nc(C)c(CC(=O)N/N=C/c2cc(C)c(O)c(C)c2)s1` [Example 29-2, [2-(4-Chloro-2-methoxyphenyl)-4-methylthiazol-5-yl]acetic acid[1-(4-hydroxy-3,5-dimethylphenyl)methylidene]hydrazide] was 1 µM. Regarding `C/C(=N\N=C\c1cc(C)c(O)c(C)c1)c1sc(-c2ccc(Cl)cc2)nc1C` [Example 30-1, 4-{[1-[2-(4-Chlorophenyl)-4-methylthiazol-5-yl]ethylidene]hydrazonomethyl}-2,6-dimethyl-phenol], the minimal effective concentration worked out at 10 µM. Regarding `COc1ccc(/C=N/N=C(\C)c2sc(-c3ccc(Cl)cc3)nc2C)cc1O` [Example 30-2], the minimal effective concentration was found to be 1 µM. `COc1ccc(COCC(=O)c2sc(-c3ccc(C)cc3C)nc2C)cc1` [Example 31-1, 1-[2-(2,4-Dimethylphenyl)-4-methylthiazol-5-yl]-2-(4-methoxybenzyloxy)ethanone]: the minimal effective concentration came out at 10 µM.

For the compound `COc1ccc(/C=C/C(=O)Nc2sc(-c3ccc(Cl)cc3OC)nc2C)cc1` [Example 34-1, N-[2-(4-Chloro-2-methoxyphenyl)-4-methylthiazol-5-yl]-3-(4-methoxyphenyl)acrylamide], the minimal effective concentration is 1 µM. `COc1cc(C)ccc1-c1nc(C)c(NC(=O)OCc2ccc3ncsc3c2)s1` [Example 36-2]: the minimal effective concentration came to 1 µM. As for `COc1ccc(-c2nc(C)c(NC(=O)OCc3ccc4ncsc4c3)s2)c(OC)c1` [Example 36-3], the figure is 10 µM; as for `Cc1ccc(-c2nc(C)c(NC(=O)OCc3ccc4ncsc4c3)s2)c(C)c1` [Example 36-4], 10 µM; as for `CCc1nc(-c2ccc(F)cc2C)sc1NC(=O)OCc1ccc2ncsc2c1` [Example 36-5], 10 µM. On to `COc1cc(Cl)ccc1-c1nc(C)c(NC(=O)OCc2ccc3sc(C)nc3c2)s1` [Example 37-1, [2-(4-Chloro-2-methoxyphenyl)-4-methylthiazol-5-yl]carbamic acid 2-methylbenzothiazol-5-ylmethyl ester], for which the minimal effective concentration is 0.1 µM. As for `COc1cc(C)ccc1-c1nc(C)c(NC(=O)OCc2ccc3sc(C)nc3c2)s1` [Example 37-2], the minimal effective concentration came out at 1 µM. With `Cc1ccc(-c2nc(C)c(NC(=O)OCc3ccc4sc(C)nc4c3)s2)c(C)c1` [Example 37-3], the minimal effective concentration was determined as 1 µM. For the compound `Cc1nc2cc(COC(=O)Nc3sc(-c4ccc(Cl)cc4C)nc3C)ccc2s1` [Example 37-4], the minimal effective concentration worked out at 1 µM.

Consider `COc1cc(Cl)ccc1-c1nc(C)c(NC(=O)OCc2ccc3c(c2)nc2n3CCN(C)C2)s1` [Example 38-1, [2-(4-Chloro-2-methoxyphenyl)-4-methylthiazol-5-yl]carbamic acid 2-methyl-1,2,3,4-tetrahydrobenzo[4,5]imidazo[1,2-a]pyrazin-8-ylmethyl ester], for which the minimal effective concentration amounted to 1 µM.

Regarding `COc1cc(C)ccc1-c1nc(C)c(NC(=O)OCc2ccc3c(c2)nc2n3CCN(C)C2)s1` [Example 38-2, [2-(2-Methoxy-4-methylphenyl)-4-methylthiazol-5-yl]carbamic acid 2-methyl-1,2,3,4-tetrahydrobenzo[4,5]imidazo[1,2-a]pyrazin-8-ylmethyl ester], the minimal effective concentration was found to be 10 µM. With `Cc1ccc(-c2nc(C)c(NC(=O)OCc3ccc4c(c3)nc3n4CCN(C)C3)s2)c(C)c1` [Example 38-3, [2-(2,4-Dimethylphenyl)-4-methylthiazol-5-yl]carbamic acid 2-methyl-1,2,3,4-tetrahydrobenzo[4,5]imidazo[1,2-a]pyrazin-8-ylmethyl ester], the minimal effective concentration came to 10 µM.

Take `COc1cc(C)ccc1-c1nc(C)c(NC(=O)OCc2ccc3c(c2)nc2n3CCNC2)s1` [Example 39-1, [2-(2-Methoxy-4-methylphenyl)-4-methylthiazol-5-yl]carbamic acid 1,2,3,4-tetrahydrobenzo[4,5]imidazo[1,2-a]pyrazin-8-ylmethyl ester]: the minimal effective concentration worked out at 0.1 µM. In the case of `COc1cc(Cl)ccc1-c1nc(C)c(NC(=O)OCc2ccc3c(c2)nc2n3CCSC2)s1` [Example 40-1, [2-(4-Chloro-2-methoxyphenyl)-4-methylthiazol-5-yl]carbamic acid 3,4-dihydro-1H-2-thia-4a,9-diazafluoren-7-ylmethyl ester], the minimal effective concentration was found to be 0.025 µM. As for `COc1cc(C)ccc1-c1nc(C)c(NC(=O)OCc2ccc3c(c2)nc2n3CCSC2)s1` [Example 40-2, [2-(2-Methoxy-4-methylphenyl)-4-methylthiazol-5-yl]carbamic acid 3,4-dihydro-1H-2-thia-4a,9-diazafluoren-7-ylmethyl ester], the figure is 0.025 µM; as for `Cc1cc(Cl)ccc1-c1nc(C)c(NC(=O)OCc2ccc3c(c2)nc2n3CCSC2)s1` [Example 40-3, [2-(4-Chloro-2-methylphenyl)-4-methylthiazol-5-yl]carbamic acid 3,4-dihydro-1H-2-thia-4a,9-diazafluoren-7-ylmethyl ester], 0.1 µM; as for `Cc1ccc(-c2nc(C)c(COC(=O)Nc3ccc4ncsc4c3)s2)c(C)c1` [Example 41-1, Benzothiazol-6-ylcarbamic acid 2-(2,4-dimethylphenyl)-4-methylthiazol-5-ylmethyl ester], 10 µM.

On to `Cc1ccc(-c2nc(C)c(COC(=O)Nc3ccc4sc(C)nc4c3)s2)c(C)c1` [Example 42-1, (2-Methylbenzothiazol-5-yl)carbamic acid 2-(2,4-dimethylphenyl)-4-methylthiazol-5-ylmethyl ester], for which the minimal effective concentration is 1 µM. Regarding `Cc1nc2cc(NC(=O)OCc3sc(-c4ccc(Cl)cc4C)nc3C)ccc2s1` [Example 42-2, (2-Methylbenzothiazol-5-yl)carbamic acid 2-(4-chloro-2-methylphenyl)-4-methylthiazol-5-ylmethyl ester], the minimal effective concentration amounted to 1 µM.

For `Cc1cc(F)ccc1-c1nc(C)c(COC(=O)Nc2ccc3c(c2)nc2n3CCSC2)s1` [Example 43-1, (3,4-Dihydro-1H-2-thia-4a,9-diazafluoren-7-yl)carbamic acid 2-(4-fluoro-2-methylphenyl)-4-methylthiazol-5-ylmethyl ester], the minimal effective concentration turned out to be 0.1 µM.

Regarding `Cc1cc(Cl)ccc1-c1nc(C)c(COC(=O)Nc2ccc3c(c2)nc2n3CCSC2)s1` [Example 43-2], the minimal effective concentration turned out to be 0.025 µM. Take `Cc1ccc(-c2nc(C)c(COC(=O)Nc3ccc4c(c3)nc3n4CCSC3)s2)c(C)c1` [Example 43-3]: the minimal effective concentration amounted to 0.1 µM.

For `CCc1nc(-c2ccc(F)cc2C)sc1COC(=O)Nc1ccc2c(c1)nc1n2CCSC1` [Example 43-4], the minimal effective concentration turned out to be 1 µM. Consider `COc1cc(C)ccc1-c1cc(NC(=O)OCc2ccc3c(c2)nc2n3CCOC2)sn1` [Example 45-1], for which the minimal effective concentration is 10 µM. Turning to `COc1cc(Cl)ccc1-c1cc(NC(=O)OCc2ccc3c(c2)ncn3C)sn1` [Example 45-2], the minimal effective concentration amounted to 1 µM. For the compound `CCn1cnc2cc(COC(=O)Nc3cc(-c4ccc(Cl)cc4OC)ns3)ccc21` [Example 45-3], the minimal effective concentration came out at 10 µM. As for `CCn1ncc2cc(COC(=O)Nc3cc(-c4ccc(Cl)cc4OC)ns3)ccc21` [Example 45-4], the minimal effective concentration worked out at 10 µM. For the compound `COc1cc(Cl)ccc1-c1nscc1NC(=O)OCc1ccc2c(c1)ncn2C` [Example 45-5], the minimal effective concentration turned out to be 0.1 µM.
